Source: patent US6355799B1, “Substituted benzene compounds, process for their preparation, and herbicidal and defoliant compositions containing them” (ISK Americas Incorporated, priority 1997, dated 2002)

Experiments:
Format in all cases: in vivo
[1] = test system: redroot pigweed (Amaranthus retroflexus, AMARE); experiment: Pre-emerge test, greenhouse herbicide activity screening; settings: rating scale 0-100, 14 days after application
How it was run: (§1)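 Sandy loam pots; pre-emerge: sown 1 d pre-spray, surface-watered after, then bottom-watered. Post-emerge: sown 8–21 d before, 2–3 leaf stage, + 0.25% v/v NIS, bottom-watered. Acetone, 187 l/ha track spray, 15–1000 g ai/ha. 0–100 injury score, day 14.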

[2] = test system: upland rice (Oryza sp., var. Tebonnet, RICE); experiment: Post-emerge test, crop safety; settings: rating scale 0-100 (0 no damage, 100 complete death), 14 days after application
How it was run: (§2)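 Rating: 0–100 visual injury, 14 DAA. Application: acetone, 187 l/ha, 15–1000 g ai/ha, flat-fan track sprayer with nozzle 40–45 cm above soil or canopy. Post-emerge runs used 0.25% v/v surfactant on 2–3 leaf plants.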

[3] = test system: field corn (Zea mays L., var. Dekalb 535, CORN); experiment: Post-emerge test, crop safety; settings: rating scale 0-100 (0 no damage, 100 complete death), 14 days after application
How it was run: as §2

[4] = test system: sicklepod (Cassia obtusifolia, CASOB); experiment: Pre-emerge test, greenhouse herbicide activity screening; settings: rating scale 0-100, 14 days after application
How it was run: (§3)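 Compounds in acetone were track-sprayed at 15–1000 g ai/ha: pre-emergence onto soil sown the previous day, then top-watered to incorporate and later bottom-watered; post-emergence onto 2–3 leaf plants with 0.25% v/v surfactant, bottom-watered only. Ratings on a 0–100 phytotoxicity scale were taken at day 14.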

[5] = test system: velvetleaf (Abutilon theophrasti, ABUTH); experiment: as above; settings: rating scale 0-100, 14 days after application
How it was run: as §3

[6] = test system: green foxtail (Setaria viridis, SETVI); experiment: as above; settings: rating scale 0-100, 14 days after application
How it was run: as §3

[7] = test system: johnsongrass (Sorghum halepense, SORHA); experiment: as above; settings: rating scale 0-100, 14 days after application
How it was run: as §3

[8] = test system: barnyardgrass (Echinochloa crus-galli, ECHCG); experiment: as above; settings: rating scale 0-100, 14 days after application
How it was run: as §3

[9] = test system: ivyleaf morningglory (Ipomoea hederacea, IPOHE); experiment: as above; settings: rating scale 0-100, 14 days after application
How it was run: as §3

[10] = test system: large crabgrass (Digitaria sanguinalis, DIGSA); experiment: as above; settings: rating scale 0-100, 14 days after application
How it was run: as §3

[11] = test system: lambsquarters (Chenopodium album, CHEAL); experiment: as above; settings: rating scale 0-100, 14 days after application
How it was run: as §3

[12] = test system: sicklepod (Cassia obtusifolia, CASOB); experiment: Post-emerge test, greenhouse herbicide activity screening; settings: rating scale 0-100 (0 no damage, 100 complete death), 14 days after application
How it was run: as §3

[13] = test system: velvetleaf (Abutilon theophrasti, ABUTH); experiment: as above; settings: rating scale 0-100 (0 no damage, 100 complete death), 14 days after application
How it was run: as §3

[14] = test system: redroot pigweed (Amaranthus retroflexus, AMARE); experiment: as above; settings: rating scale 0-100 (0 no damage, 100 complete death), 14 days after application
How it was run: as §3

[15] = test system: common ragweed (Ambrosia artemisizfolia L., AMBEL); experiment: as above; settings: rating scale 0-100 (0 no damage, 100 complete death), 14 days after application
How it was run: as §3

[16] = test system: green foxtail (Setaria viridis, SETVI); experiment: as above; settings: rating scale 0-100 (0 no damage, 100 complete death), 14 days after application
How it was run: as §3

[17] = test system: johnsongrass (Sorghum halepense, SORHA); experiment: as above; settings: rating scale 0-100 (0 no damage, 100 complete death), 14 days after application
How it was run: as §3

[18] = test system: barnyardgrass (Echinochloa crus-galli, ECHCG); experiment: as above; settings: rating scale 0-100 (0 no damage, 100 complete death), 14 days after application
How it was run: as §3

[19] = test system: ivyleaf morningglory (Ipomoea hederacea, IPOHE); experiment: as above; settings: rating scale 0-100 (0 no damage, 100 complete death), 14 days after application
How it was run: as §3

[20] = test system: large crabgrass (Digitaria sanguinalis, DIGSA); experiment: as above; settings: rating scale 0-100 (0 no damage, 100 complete death), 14 days after application
How it was run: as §3

[21] = test system: lambsquarters (Chenopodium album, CHEAL); experiment: as above; settings: rating scale 0-100 (0 no damage, 100 complete death), 14 days after application
How it was run: as §3

[22] = test system: upland rice (Oryza sp., var. Tebonnet, RICE); experiment: Pre-emerge test, crop safety; settings: rating scale 0-100, 14 days after application
How it was run: as §1

[23] = test system: field corn (Zea mays L., var. Dekalb 535, CORN); experiment: Pre-emerge test, crop safety; settings: rating scale 0-100, 14 days after application
How it was run: as §1

COc1c(Cl)cc(F)c(-n2c(=O)cc(C(F)(F)F)n(C)c2=O)c1CC(Cl)C(=O)OCCC#N (stereo not shown) [14-29]
10: Post-emerge phytotoxicity rating RICE (crop damage) ([2]; Rate 250 g ai/ha) | Pre-emerge phytotoxicity rating, crop damage CORN ([23]; 250 g ai/ha)
40: Post-emerge Herbicidal Activity, phytotoxicity rating CASOB ([12]; Rate 250 g ai/ha)
100: Post-emerge Herbicidal Activity, phytotoxicity rating ABUTH ([13]; Rate 250 g ai/ha) | Post-emerge Herbicidal Activity, phytotoxicity rating AMARE ([14]; Rate 250 g ai/ha) | Post-emerge Herbicidal Activity, phytotoxicity rating AMBEL ([15]; Rate 63 g ai/ha) | Post-emerge Herbicidal Activity, phytotoxicity rating AMBEL ([15]; Rate 250 g ai/ha) | Post-emerge Herbicidal Activity, phytotoxicity rating ECHCG ([18]; Rate 63 g ai/ha) | Post-emerge Herbicidal Activity, phytotoxicity rating ECHCG ([18]; Rate 250 g ai/ha)
50: Post-emerge phytotoxicity rating CORN (crop damage) ([3]; Rate 250 g ai/ha) | Pre-emerge herbicidal activity, phytotoxicity rating DIGSA ([10]; 250 g ai/ha) | Pre-emerge herbicidal activity, phytotoxicity rating CHEAL ([11]; 250 g ai/ha) | Post-emerge Herbicidal Activity, phytotoxicity rating ABUTH ([13]; Rate 63 g ai/ha) | Post-emerge Herbicidal Activity, phytotoxicity rating SORHA ([17]; Rate 63 g ai/ha)
30: Post-emerge Herbicidal Activity, phytotoxicity rating CHEAL ([21]; Rate 63 g ai/ha)
15: Post-emerge phytotoxicity rating CORN (crop damage) ([3]; Rate 63 g ai/ha)
95: Pre-emerge herbicidal activity, phytotoxicity rating AMARE ([1]; 250 g ai/ha) | Post-emerge Herbicidal Activity, phytotoxicity rating DIGSA ([20]; Rate 250 g ai/ha)
80: Pre-emerge herbicidal activity, phytotoxicity rating ABUTH ([5]; 250 g ai/ha) | Post-emerge Herbicidal Activity, phytotoxicity rating IPOHE ([19]; Rate 63 g ai/ha) | Post-emerge Herbicidal Activity, phytotoxicity rating IPOHE ([19]; Rate 250 g ai/ha)
0: Post-emerge phytotoxicity rating RICE (crop damage) ([2]; Rate 63 g ai/ha) | Pre-emerge herbicidal activity, phytotoxicity rating CASOB ([4]; 63 g ai/ha) | Pre-emerge herbicidal activity, phytotoxicity rating CASOB ([4]; 250 g ai/ha) | Pre-emerge herbicidal activity, phytotoxicity rating ABUTH ([5]; 63 g ai/ha) | Pre-emerge herbicidal activity, phytotoxicity rating SETVI ([6]; 63 g ai/ha) | Pre-emerge herbicidal activity, phytotoxicity rating SETVI ([6]; 250 g ai/ha) | Pre-emerge herbicidal activity, phytotoxicity rating SORHA ([7]; 63 g ai/ha) | Pre-emerge herbicidal activity, phytotoxicity rating SORHA ([7]; 250 g ai/ha) | Pre-emerge herbicidal activity, phytotoxicity rating ECHCG ([8]; 63 g ai/ha) | Pre-emerge herbicidal activity, phytotoxicity rating ECHCG ([8]; 250 g ai/ha) | Pre-emerge herbicidal activity, phytotoxicity rating IPOHE ([9]; 63 g ai/ha) | Pre-emerge herbicidal activity, phytotoxicity rating IPOHE ([9]; 250 g ai/ha) | Pre-emerge herbicidal activity, phytotoxicity rating DIGSA ([10]; 63 g ai/ha) | Pre-emerge herbicidal activity, phytotoxicity rating CHEAL ([11]; 63 g ai/ha) | Post-emerge Herbicidal Activity, phytotoxicity rating CASOB ([12]; Rate 63 g ai/ha) | Pre-emerge phytotoxicity rating, crop damage RICE ([22]; 63 g ai/ha) | Pre-emerge phytotoxicity rating, crop damage CORN ([23]; 63 g ai/ha)
60: Post-emerge Herbicidal Activity, phytotoxicity rating CHEAL ([21]; Rate 250 g ai/ha)
90: Post-emerge Herbicidal Activity, phytotoxicity rating AMARE ([14]; Rate 63 g ai/ha)
70: Post-emerge Herbicidal Activity, phytotoxicity rating SETVI ([16]; Rate 250 g ai/ha) | Post-emerge Herbicidal Activity, phytotoxicity rating SORHA ([17]; Rate 250 g ai/ha) | Post-emerge Herbicidal Activity, phytotoxicity rating DIGSA ([20]; Rate 63 g ai/ha)
20: Pre-emerge herbicidal activity, phytotoxicity rating AMARE ([1]; 63 g ai/ha) | Post-emerge Herbicidal Activity, phytotoxicity rating SETVI ([16]; Rate 63 g ai/ha) | Pre-emerge phytotoxicity rating, crop damage RICE ([22]; 250 g ai/ha)
